Source: EP4159743A1, “METHODS FOR PREPARING PYRIDAZINE COMPOUNDS” (ETH Zurich, priority 2021, dated 2023)

Experiment: Kinetics measurements, control sample: decrease in absorption of the tetrazine alone over time
Type: physicochemical
Settings: absorption at 525 nm monitored over time, trypsin buffer
Experimental: For kinetic measurements, 196 µL trypsin buffer was added with 2 µL of a 10 mM stock solution of compound 1 in DMSO (final concentration 100 µM) and 2 µL of a 10 mM stock solution of 3,6-di-2-pyridyl-1,2,4,5-tetrazine in DMSO (final concentration 100 µM) in a quartz cuvette. The sample was mixed well and absorption at 525 nm was monitored over time, measuring every minute. Measurements were done in triplicates. […] This was subtracted from the kinetic measurements. The obtained absorbance values were converted to concentrations through a standard curve and were plotted as the reciprocal concentration of the tetrazine reagent versus time to yield a second-order rate constant. Data analysis and statistical analysis were done in Microsoft Excel (2016) and Prism 7 (GraphPad).

c1ccc(-c2nnc(-c3ccccn3)nn2)nc1 [3,6-di-2-pyridyl-1,2,4,5-tetrazine]
rate constant (decrease in absorption over time, fitted to a first-order reaction equation): 2.96e-05 s⁻¹
